Target: T1, human 11β-HSD1 (Homo sapiens, UniProt P28845)
T1 construct: host or cells: microsome fraction
Test: Enzymatic 11beta-HSD1 test (SPA-based detection)
Format: biochemical
Conditions: human 11β-HSD1 microsome fraction, [1,2-3H]-cortisone, NADPH, 37° C. 1 hour
Summary of the method: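 Scintillation proximity detection: anti-cortisol antibody on SPA-PVT beads captured tritiated cortisol. The stop mix also contained 0.01 mM SSR110887 and was equilibrated 1 h at room temperature before counting. Cortisol came from [1,2-3H]-cortisone ([…]), turned over by human 11β-HSD1 microsomal protein (0.2 µg) with 0.25 mM NADPH in HEPES buffer, 37 °C, 1 h.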

T1 sequence (P28845 whole entry): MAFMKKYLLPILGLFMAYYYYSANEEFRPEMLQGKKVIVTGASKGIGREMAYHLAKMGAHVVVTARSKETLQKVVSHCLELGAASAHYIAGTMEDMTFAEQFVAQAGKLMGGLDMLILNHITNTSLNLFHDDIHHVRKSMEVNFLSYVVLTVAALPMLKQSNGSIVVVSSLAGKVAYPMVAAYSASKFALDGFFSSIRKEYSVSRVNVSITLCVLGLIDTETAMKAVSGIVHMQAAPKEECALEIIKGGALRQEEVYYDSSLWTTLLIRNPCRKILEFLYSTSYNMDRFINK

| IC50 | SMILES |
| --- | --- |
| 144 nM | CN1CCN(CCc2ccc(C3C(C)(C)OC(N[C@@H](CCO)c4ccccc4F)=NS3(=O)=O)cc2)CC1 (stereo partly drawn) [Example 148, (S)-3-(6,6-Dimethyl-5-{4-[2-(4-methyl-piperazin-1-yl)-ethyl]-phenyl}-4,4-dioxo-5,6-dihydro-4H-4lambda6-[1,4,3]oxathiazin-2-ylamino)-3-(2-fluoro-phenyl)-propan-1-ol] |
| 4 nM | CC1(C)OC(N[C@@H](CCO)c2ccccc2F)=NS(=O)(=O)[C@H]1c1ccc(-c2cccc(C(N)=O)c2)cc1 [Example 149, 4′-{(S)-2-[(S)-1-(2-fluorophenyl)-3-hydroxy-propylamino]-6,6-dimethyl-4,4-dioxo-5,6-dihydro-4H-4lambda6-[1,4,3]oxathiazin-5-yl}-biphenyl-3-carboxamide] |
| 3 nM | CC1(C)OC(N[C@@H](CCO)c2ccccc2F)=NS(=O)(=O)[C@@H]1c1ccc(-c2cccc(C(N)=O)c2)cc1 [Example 150, 4′-{(R)-2-[(S)-1-(2-fluorophenyl)-3-hydroxy-propylamino]-6,6-dimethyl-4,4-dioxo-5,6-dihydro-4H-4lambda6-[1,4,3]oxathiazin-5-yl}-biphenyl-3-carboxamide] |
| 34 nM | CC1(C)OC(N[C@@H](CCO)c2ccccc2F)=NS(=O)(=O)C1c1ccc(C2CCN(C(C)(C)C)CC2)cc1 (stereo partly drawn) [Example 151, (S)-3-{5-[4-(1-tert-Butyl-piperidin-4-yl)-phenyl]-6,6-dimethyl-4,4-dioxo-5,6-dihydro-4H-4lambda6-[1,4,3]oxathiazin-2-ylamino}-3-(2-fluorophenyl)-propan-1-ol] |
| 26 nM | CC1(C)OC(N[C@@H](CCO)c2ccccc2F)=NS(=O)(=O)C1c1ccc(C2CCN(C3CC3)CC2)cc1 (stereo partly drawn) [Example 152, (S)-3-{5-[4-(1-Cyclopropyl-piperidin-4-yl)-phenyl]-6,6-dimethyl-4,4-dioxo-5,6-dihydro-4H-4lamda6-[1,4,3]oxathiazin-2-ylamino}-3-(2-fluorophenyl)-propan-1-ol] |
| 48 nM | CC(C)(O)c1ccc(C2C(C)(C)OC(N[C@@H](CCO)c3ccccc3F)=NS2(=O)=O)cc1 (stereo partly drawn) [Example 153, (S)-3-(2-fluorophenyl)-3-{5-[4-(1-hydroxy-1-methyl-ethyl)-phenyl]-6,6-dimethyl-4,4-dioxo-5,6-dihydro-4H-4lambda6-[1,4,3]oxathiazin-2-ylamino}-propan-1-ol] |
| 13 nM | CN1CCN(c2ccc(-c3ccc(C4C(C)(C)OC(N[C@@H](CCO)c5ccccc5F)=NS4(=O)=O)cc3)nc2)CC1 (stereo partly drawn) [Example 154, (S)-3-(6,6-Dimethyl-5-{4-[5-(4-methyl-piperazin-1-yl)-pyridin-2-yl]-phenyl}-4,4-dioxo-5,6-dihydro-4H-4lambda6-[1,4,3]oxathiazin-2-ylamino)-3-(2-fluoro-phenyl)-propan-1-ol] |
| 17 nM | CC(=O)Oc1ccc(C2C(C)(C)OC(N[C@@H](CCO)c3ccccc3F)=NS2(=O)=O)cc1 (stereo partly drawn) [Example 155, Acetic acid 4-{2-[(S)-1-(2-fluorophenyl)-3-hydroxy-propylamino]-6,6-dimethyl-4,4-dioxo-5,6-dihydro-4H-4lambda6-[1,4,3]oxathiazin-5-yl}-phenyl ester] |
| 12 nM | C[C@H](NC1=NS(=O)(=O)C(c2ccc(-c3cccc(C(N)=O)c3)cc2)C(C)(C)O1)c1ccccc1F (stereo partly drawn) [Example 156, 4′-{2-[(S)-1-(2-fluorophenyl)-ethylamino]-6,6-dimethyl-4,4-dioxo-5,6-dihydro-4H-4lambda6-[1,4,3]oxathiazin-5-yl}-biphenyl-3-carboxamide] |
| 20 nM | C[C@H](NC1=NS(=O)(=O)C(c2ccc(-c3ccc(C(N)=O)cc3)cc2)C(C)(C)O1)c1ccccc1F (stereo partly drawn) [Example 157, 4′-{2-[(S)-1-(2-fluorophenyl)-ethylamino]-6,6-dimethyl-4,4-dioxo-5,6-dihydro-4H-4lambda6-[1,4,3]oxathiazin-5-yl}-biphenyl-4-carboxamide] |
| 38 nM | C[C@H](NC1=NS(=O)(=O)C(c2ccc(C3CCNCC3)cc2)C(C)(C)O1)c1ccccc1F (stereo partly drawn) [Example 158, [6,6-Dimethyl-4,4-dioxo-5-(4-piperidin-4-yl-phenyl)-5,6-dihydro-4H-4lambda6-[1,4,3]oxathiazin-2-yl]-[(S)-1-(2-fluorophenyl)-ethyl]-amin] |
| 108 nM | C[C@H](NC1=NS(=O)(=O)C(c2ccc(C3CCN(C)CC3)cc2)C(C)(C)O1)c1ccccc1F (stereo partly drawn) [Example 159, {6,6-Dimethyl-5-[4-(1-methyl-piperidin-4-yl)-phenyl]-4,4-dioxo-5,6-dihydro-4H-4lambda6-[1,4,3]oxathiazin-2-yl}-[(S)-1-(2-fluorophenyl)-ethyl]-amine] |
| 64 nM | C[C@H](NC1=NS(=O)(=O)C(c2ccc(C3CCN(CCO)CC3)cc2)C(C)(C)O1)c1ccccc1F (stereo partly drawn) [Example 160, 2-[4-(4-{2-[(S)-1-(2-fluorophenyl)-ethylamino]-6,6-dimethyl-4,4-dioxo-5,6-dihydro-4H-4lambda6-[1,4,3]oxathiazin-5-yl}-phenyl)-piperidin-1-yl]-ethanol] |
| 11 nM | CC1(C)OC(N[C@@H](CCO)c2ccccc2F)=NS(=O)(=O)C1c1cccnc1 (stereo partly drawn) [Example 161, (S)-3-(6,6-Dimethyl-4,4-dioxo-5-pyridin-3-yl-5,6-dihydro-4H-4lambda6-[1,4,3]oxathiazin-2-ylamino)-3-(2-fluorophenyl)-propan-1-ol] |
| 52 nM | C[C@H](NC1=NS(=O)(=O)C(c2ccc(C(C)(C)O)cc2)C(C)(C)O1)c1ccccc1F (stereo partly drawn) [Example 162, 2-(4-{2-[(S)-1-(2-fluorophenyl)-ethylamino]-6,6-dimethyl-4,4-dioxo-5,6-dihydro-4H-4lambda6-[1,4,3]oxathiazin-5-yl}-phenyl)-propan-2-ol] |
| 15 nM | CC(=O)c1ccc(C2C(C)(C)OC(N[C@@H](C)c3ccccc3F)=NS2(=O)=O)cc1 (stereo partly drawn) [Example 163, 1-(4-{2-[(S)-1-(2-fluorophenyl)-ethylamino]-6,6-dimethyl-4,4-dioxo-5,6-dihydro-4H-4lambda6-[1,4,3]oxathiazin-5-yl}-phenyl)-ethanone] |
| 27 nM | C[C@H](NC1=NS(=O)(=O)C(c2ccc(-c3ccccc3)nc2)C(C)(C)O1)c1ccccc1F (stereo partly drawn) [Example 164, [6,6-Dimethyl-4,4-dioxo-5-(6-phenyl-pyridin-3-yl)-5,6-dihydro-4H-4lambda6-[1,4,3]oxathiazin-2-yl]-[(S)-1-(2-fluorophenyl)-ethyl]-amine] |
| 7 nM | CC1(C)OC(N[C@@H](CCO)c2ccccc2F)=NS(=O)(=O)C1c1ccc(-c2ccccc2)nc1 (stereo partly drawn) [Example 165, (S)-3-[6,6-Dimethyl-4,4-dioxo-5-(6-phenyl-pyridin-3-yl)-5,6-dihydro-4H-4lambda6-[1,4,3]oxathiazin-2-ylamino]-3-(2-fluorophenyl)-propan-1-ol] |
| 4 nM | C[C@H](NC1=NS(=O)(=O)C(c2ccc(-c3cnc(N4CCNCC4)nc3)cc2)C(C)(C)O1)c1ccccc1F (stereo partly drawn) [Example 166, {6,6-Dimethyl-4,4-dioxo-5-[4-(2-piperazin-1-yl-pyrimidin-5-yl)-phenyl]-5,6-dihydro-4H-4lambda6-[1,4,3]oxathiazin-2-yl}-[(S)-1-(2-fluorophenyl)-ethyl]-amine] |
| 122 nM | C[C@H](NC1=NS(=O)(=O)C(c2ccc(N3CCNCC3)cc2)C(C)(C)O1)c1ccccc1F (stereo partly drawn) [Example 167, [6,6-Dimethyl-4,4-dioxo-5-(4-piperazin-1-yl-phenyl)-5,6-dihydro-4H-4lambda6-[1,4,3]oxathiazin-2-yl]-[(S)-1-(2-fluorophenyl)-ethyl]-amine] |
| 21 nM | C[C@H](NC1=NS(=O)(=O)C(c2cccnc2)C(C)(C)O1)c1ccccc1F (stereo partly drawn) [Example 168, (6,6-Dimethyl-4,4-dioxo-5-pyridin-3-yl-5,6-dihydro-4H-4lambda6-[1,4,3]oxathiazin-2-yl)-[(S)-1-(2-fluorophenyl)-ethyl]-amine] |
| 2 nM | CC1(C)OC(N[C@@H](CCO)c2ccccc2F)=NS(=O)(=O)C1c1ccc(-c2cnc(N3CCNCC3)nc2)cc1 (stereo partly drawn) [Example 169, (S)-3-{6,6-Dimethyl-4,4-dioxo-5-[4-(2-piperazin-1-yl-pyrimidin-5-yl)-phenyl]-5,6-dihydro-4H-4lambda6-[1,4,3]oxathiazin-2-ylamino}-3-(2-fluoro-phenyl)-propan-1-ol] |
| 246 nM | C[C@H](NC1=NS(=O)(=O)C(c2ccc(N3CCN(C)CC3)cc2)C(C)(C)O1)c1ccccc1F (stereo partly drawn) [Example 170, {6,6-Dimethyl-5-[4-(4-methyl-piperazin-1-yl)-phenyl]-4,4-dioxo-5,6-dihydro-4H-4lambda6-[1,4,3]oxathiazin-2-yl}-[(S)-1-(2-fluorophenyl)-ethyl]-amine] |
| 108 nM | C[C@H](NC1=NS(=O)(=O)C(c2ccc(C3CCN(C(C)(C)C)CC3)cc2)C(C)(C)O1)c1ccccc1F (stereo partly drawn) [Example 171, {5-[4-(1-tert-Butyl-piperidin-4-yl)-phenyl]-6,6-dimethyl-4,4-dioxo-5,6-dihydro-4H-4lambda6-[1,4,3]oxathiazin-2-yl}-[(S)-1-(2-fluorophenyl)-ethyl]-amine] |
| 55 nM | C[C@H](NC1=NS(=O)(=O)C(c2ccc(C3CCN(C4CC4)CC3)cc2)C(C)(C)O1)c1ccccc1F (stereo partly drawn) [Example 172, {5-[4-(1-Cyclopropyl-piperidin-4-yl)-phenyl]-6,6-dimethyl-4,4-dioxo-5,6-dihydro-4H-4lambda6-[1,4,3]oxathiazin-2-yl}-[(S)-1-(2-fluorophenyl)-ethyl]-amine] |
| 137 nM | C[C@H](NC1=NS(=O)(=O)C(c2ccc(-c3ccccc3CN(C)C)cc2)C(C)(C)O1)c1ccccc1F (stereo partly drawn) [Example 173, [5-(2′-Dimethylaminomethyl-biphenyl-4-yl)-6,6-dimethyl-4,4-dioxo-5,6-dihydro-4H-4lambda6-[1,4,3]oxathiazin-2-yl]-[(S)-1-(2-fluorophenyl)-ethyl]-amin] |
| 18 nM | C[C@H](NC1=NS(=O)(=O)[C@@H](c2ccc(-c3cccc(C(N)=O)c3)cc2)C(C)(C)O1)c1ccccc1F [Example 174, 4′-{(S)-2-[(S)-1-(2-fluorophenyl)-ethylamino]-6,6-dimethyl-4,4-dioxo-5,6-dihydro-4H-4lambda6-[1,4,3]oxathiazin-5-yl}-biphenyl-3-carboxamide] |
